# According to the NIST ThermoML archive (doi:10.1007/s10765-009-0568-4):
# Values joined by “and” are separate entries in the source; they are usually repeats but may differ in a detail not shown here. Equal values may be shown once. ± gives the expanded uncertainty stated by the source.
# Experiment: molar heat capacity at constant pressure
# Conditions: 101.33 kPa, Crystal
compound,measurement,setting,value
O=C([O-])c1ccccc1.[K+] [potassium benzoate],molar heat capacity at constant pressure,78.05 K,64.02 ± 0.61 J/K/mol
same,molar heat capacity at constant pressure,79.77 K,65.4 ± 0.62 J/K/mol
same,molar heat capacity at constant pressure,80 K,66.51 ± 0.63 J/K/mol
same,molar heat capacity at constant pressure,82.44 K,67.11 ± 0.64 J/K/mol
same,molar heat capacity at constant pressure,85 K,69.25 ± 0.65 J/K/mol
same,molar heat capacity at constant pressure,85.05 K,69.06 ± 0.65 J/K/mol
same,molar heat capacity at constant pressure,87.58 K,70.57 ± 0.66 J/K/mol
same,molar heat capacity at constant pressure,90 K,71.99 ± 0.88 J/K/mol
same,molar heat capacity at constant pressure,90.05 K,72.16 ± 0.88 J/K/mol
same,molar heat capacity at constant pressure,92.46 K,73.51 ± 0.89 J/K/mol
same,molar heat capacity at constant pressure,94.82 K,75.08 ± 0.9 J/K/mol
same,molar heat capacity at constant pressure,95 K,74.71 ± 0.9 J/K/mol
same,molar heat capacity at constant pressure,97.13 K,76.49 ± 0.91 J/K/mol
same,molar heat capacity at constant pressure,99.4 K,77.52 ± 0.91 J/K/mol
same,molar heat capacity at constant pressure,100 K,77.41 ± 0.91 J/K/mol
same,molar heat capacity at constant pressure,101.6 K,78.59 ± 0.92 J/K/mol
same,molar heat capacity at constant pressure,103.8 K,79.84 ± 0.93 J/K/mol
same,molar heat capacity at constant pressure,105 K,80.09 ± 0.93 J/K/mol
same,molar heat capacity at constant pressure,106 K,81.03 ± 0.93 J/K/mol
same,molar heat capacity at constant pressure,108.1 K,82.38 ± 0.94 J/K/mol
same,molar heat capacity at constant pressure,110 K,82.77 ± 0.94 J/K/mol
same,molar heat capacity at constant pressure,110.2 K,83.34 ± 0.94 J/K/mol
same,molar heat capacity at constant pressure,112.2 K,84.3 ± 0.95 J/K/mol
same,molar heat capacity at constant pressure,114.2 K,85.15 ± 0.95 J/K/mol
same,molar heat capacity at constant pressure,115 K,85.42 ± 0.96 J/K/mol
same,molar heat capacity at constant pressure,116.3 K,86.65 ± 0.96 J/K/mol
same,molar heat capacity at constant pressure,118.3 K,87.5 ± 0.97 J/K/mol
same,molar heat capacity at constant pressure,120 K,88.06 ± 0.97 J/K/mol
same,molar heat capacity at constant pressure,120.4 K,88.67 ± 0.97 J/K/mol
same,molar heat capacity at constant pressure,123.5 K,90.49 ± 0.98 J/K/mol
same,molar heat capacity at constant pressure,125 K,90.69 ± 0.99 J/K/mol
same,molar heat capacity at constant pressure,127.5 K,92.84 ± 1 J/K/mol
same,molar heat capacity at constant pressure,130 K,93.3 ± 1 J/K/mol
same,molar heat capacity at constant pressure,131.5 K,94.64 ± 1 J/K/mol
same,molar heat capacity at constant pressure,135 K,95.9 ± 1 J/K/mol
same,molar heat capacity at constant pressure,135.4 K,96.31 ± 1 J/K/mol
same,molar heat capacity at constant pressure,139.4 K,98.35 ± 1 J/K/mol
same,molar heat capacity at constant pressure,140 K,98.48 ± 1 J/K/mol
same,molar heat capacity at constant pressure,143.3 K,100.4 ± 1 J/K/mol
same,molar heat capacity at constant pressure,145 K,101 ± 1 J/K/mol
same,molar heat capacity at constant pressure,147.2 K,102.3 ± 1.1 J/K/mol
same,molar heat capacity at constant pressure,150 K,103.6 ± 1.1 J/K/mol
same,molar heat capacity at constant pressure,151.1 K,103.9 ± 1.1 J/K/mol
same,molar heat capacity at constant pressure,154.9 K,105.6 ± 1.1 J/K/mol
same,molar heat capacity at constant pressure,155 K,106.1 ± 1.1 J/K/mol
same,molar heat capacity at constant pressure,158.6 K,107.2 ± 1.1 J/K/mol
same,molar heat capacity at constant pressure,160 K,108.6 ± 1.1 J/K/mol
same,molar heat capacity at constant pressure,162.3 K,108.9 ± 1.1 J/K/mol
same,molar heat capacity at constant pressure,165 K,111.2 ± 1.1 J/K/mol
same,molar heat capacity at constant pressure,166 K,110.7 ± 1.1 J/K/mol
same,molar heat capacity at constant pressure,169.7 K,112.6 ± 1.1 J/K/mol
same,molar heat capacity at constant pressure,170 K,113.6 ± 1.1 J/K/mol
same,molar heat capacity at constant pressure,173.3 K,114.5 ± 1.1 J/K/mol
same,molar heat capacity at constant pressure,175 K,116.1 ± 1.1 J/K/mol
same,molar heat capacity at constant pressure,176.9 K,115.9 ± 1.1 J/K/mol
same,molar heat capacity at constant pressure,180 K,118.6 ± 1.1 J/K/mol
same,molar heat capacity at constant pressure,180.4 K,117.8 ± 1.1 J/K/mol
same,molar heat capacity at constant pressure,185 K,121 ± 1.2 J/K/mol
same,molar heat capacity at constant pressure,185.2 K,119.9 ± 1.2 J/K/mol
same,molar heat capacity at constant pressure,190 K,123.5 ± 1.2 J/K/mol
same,molar heat capacity at constant pressure,190.3 K,122.8 ± 1.2 J/K/mol
same,molar heat capacity at constant pressure,194.3 K,124.8 ± 1.2 J/K/mol
same,molar heat capacity at constant pressure,195 K,125.9 ± 1.2 J/K/mol
same,molar heat capacity at constant pressure,198.3 K,127 ± 1.2 J/K/mol
same,molar heat capacity at constant pressure,200 K,128.3 ± 1.2 J/K/mol
same,molar heat capacity at constant pressure,202.2 K,129 ± 1.2 J/K/mol
same,molar heat capacity at constant pressure,205 K,130.6 ± 1.2 J/K/mol
same,molar heat capacity at constant pressure,206.2 K,131.6 ± 1.2 J/K/mol
same,molar heat capacity at constant pressure,210 K,133 ± 1.2 J/K/mol
same,molar heat capacity at constant pressure,210.2 K,133.5 ± 1.2 J/K/mol
same,molar heat capacity at constant pressure,214.1 K,135.5 ± 1.3 J/K/mol
same,molar heat capacity at constant pressure,215 K,135.4 ± 1.3 J/K/mol
same,molar heat capacity at constant pressure,218.1 K,137.3 ± 1.3 J/K/mol
same,molar heat capacity at constant pressure,220 K,137.7 ± 1.3 J/K/mol
same,molar heat capacity at constant pressure,222.1 K,139.3 ± 1.3 J/K/mol
same,molar heat capacity at constant pressure,225 K,140 ± 1.3 J/K/mol
same,molar heat capacity at constant pressure,226.1 K,141 ± 1.3 J/K/mol
same,molar heat capacity at constant pressure,230 K,142.3 ± 1.3 J/K/mol
same,molar heat capacity at constant pressure,230.1 K,142.7 ± 1.3 J/K/mol
same,molar heat capacity at constant pressure,234 K,144.9 ± 1.3 J/K/mol
same,molar heat capacity at constant pressure,235 K,144.6 ± 1.3 J/K/mol
same,molar heat capacity at constant pressure,237.9 K,146.3 ± 1.3 J/K/mol
same,molar heat capacity at constant pressure,240 K,146.9 ± 1.3 J/K/mol
same,molar heat capacity at constant pressure,243.1 K,149 ± 1.3 J/K/mol
same,molar heat capacity at constant pressure,245 K,149.2 ± 1.3 J/K/mol
same,molar heat capacity at constant pressure,248.2 K,151.2 ± 1.3 J/K/mol
same,molar heat capacity at constant pressure,250 K,151.4 ± 1.3 J/K/mol
same,molar heat capacity at constant pressure,252.2 K,152.7 ± 1.4 J/K/mol
same,molar heat capacity at constant pressure,255 K,153.7 ± 1.4 J/K/mol
same,molar heat capacity at constant pressure,256.1 K,154.1 ± 1.4 J/K/mol
same,molar heat capacity at constant pressure,260 K,155.9 ± 1.4 J/K/mol
same,molar heat capacity at constant pressure,260.1 K,156.2 ± 1.4 J/K/mol
same,molar heat capacity at constant pressure,264.1 K,158.2 ± 1.4 J/K/mol
same,molar heat capacity at constant pressure,265 K,158.1 ± 1.4 J/K/mol
same,molar heat capacity at constant pressure,268.1 K,160.2 ± 1.4 J/K/mol
same,molar heat capacity at constant pressure,270 K,160.3 ± 1.4 J/K/mol
same,molar heat capacity at constant pressure,272.1 K,161.4 ± 1.4 J/K/mol
same,molar heat capacity at constant pressure,275 K,162.5 ± 1.4 J/K/mol
same,molar heat capacity at constant pressure,276.1 K,163.3 ± 1.4 J/K/mol
same,molar heat capacity at constant pressure,280 K,165.1 ± 1.4 J/K/mol and 164.6 ± 1.4 J/K/mol
same,molar heat capacity at constant pressure,284 K,166.4 ± 1.4 J/K/mol
same,molar heat capacity at constant pressure,285 K,166.8 ± 1.4 J/K/mol
same,molar heat capacity at constant pressure,287.9 K,168.1 ± 1.5 J/K/mol
same,molar heat capacity at constant pressure,290 K,168.9 ± 1.5 J/K/mol
same,molar heat capacity at constant pressure,291.8 K,169.9 ± 1.5 J/K/mol
same,molar heat capacity at constant pressure,295 K,171 ± 1.5 J/K/mol
same,molar heat capacity at constant pressure,295.9 K,171.5 ± 1.5 J/K/mol
same,molar heat capacity at constant pressure,298.15 K,172.3 ± 1.5 J/K/mol
same,molar heat capacity at constant pressure,299.8 K,172.8 ± 1.5 J/K/mol
same,molar heat capacity at constant pressure,300 K,173.1 ± 1.5 J/K/mol
same,molar heat capacity at constant pressure,303.7 K,174.3 ± 1.5 J/K/mol
same,molar heat capacity at constant pressure,305 K,175.2 ± 1.5 J/K/mol
same,molar heat capacity at constant pressure,307.8 K,176.1 ± 1.5 J/K/mol
same,molar heat capacity at constant pressure,310 K,177.3 ± 1.5 J/K/mol
same,molar heat capacity at constant pressure,311.7 K,177.6 ± 1.5 J/K/mol
same,molar heat capacity at constant pressure,315 K,179.3 ± 1.5 J/K/mol
same,molar heat capacity at constant pressure,315.6 K,179.5 ± 1.5 J/K/mol
same,molar heat capacity at constant pressure,319.5 K,180.7 ± 1.5 J/K/mol
same,molar heat capacity at constant pressure,320 K,181.4 ± 1.5 J/K/mol
same,molar heat capacity at constant pressure,323.5 K,182.2 ± 1.5 J/K/mol
same,molar heat capacity at constant pressure,325 K,183.4 ± 1.5 J/K/mol
same,molar heat capacity at constant pressure,327.4 K,183.7 ± 1.5 J/K/mol
same,molar heat capacity at constant pressure,330 K,185.4 ± 1.6 J/K/mol
same,molar heat capacity at constant pressure,331.4 K,185.4 ± 1.6 J/K/mol
same,molar heat capacity at constant pressure,335 K,187.4 ± 1.6 J/K/mol
same,molar heat capacity at constant pressure,335.5 K,187.1 ± 1.6 J/K/mol
same,molar heat capacity at constant pressure,339.4 K,188.7 ± 1.6 J/K/mol
same,molar heat capacity at constant pressure,340 K,189.4 ± 1.6 J/K/mol
same,molar heat capacity at constant pressure,343.5 K,190.7 ± 1.6 J/K/mol
same,molar heat capacity at constant pressure,345 K,191.4 ± 1.6 J/K/mol
same,molar heat capacity at constant pressure,346.5 K,192.2 ± 1.6 J/K/mol
same,molar heat capacity at constant pressure,349.5 K,193.4 ± 1.6 J/K/mol
same,molar heat capacity at constant pressure,350 K,193.3 ± 1.6 J/K/mol
same,molar heat capacity at constant pressure,353.5 K,195 ± 1.6 J/K/mol
same,molar heat capacity at constant pressure,355 K,195.3 ± 1.6 J/K/mol
same,molar heat capacity at constant pressure,357.5 K,196.3 ± 1.6 J/K/mol
same,molar heat capacity at constant pressure,360 K,197.2 ± 1.6 J/K/mol
same,molar heat capacity at constant pressure,361.4 K,197.9 ± 1.6 J/K/mol
same,molar heat capacity at constant pressure,365 K,199.1 ± 1.6 J/K/mol
same,molar heat capacity at constant pressure,365.3 K,199.4 ± 1.6 J/K/mol
same,molar heat capacity at constant pressure,369.2 K,200.8 ± 1.7 J/K/mol
same,molar heat capacity at constant pressure,370 K,201 ± 1.7 J/K/mol
same,molar heat capacity at constant pressure,373.3 K,202.3 ± 1.7 J/K/mol
same,molar heat capacity at constant pressure,375 K,202.9 ± 1.7 J/K/mol
same,molar heat capacity at constant pressure,377.4 K,203.7 ± 1.7 J/K/mol
same,molar heat capacity at constant pressure,380 K,204.8 ± 1.7 J/K/mol
same,molar heat capacity at constant pressure,381.4 K,205.6 ± 1.7 J/K/mol
same,molar heat capacity at constant pressure,385 K,206.6 ± 1.7 J/K/mol
same,molar heat capacity at constant pressure,385.4 K,206.8 ± 1.7 J/K/mol
same,molar heat capacity at constant pressure,389.4 K,208.1 ± 1.7 J/K/mol
same,molar heat capacity at constant pressure,390 K,208.4 ± 1.7 J/K/mol
same,molar heat capacity at constant pressure,393.4 K,209.9 ± 1.7 J/K/mol
same,molar heat capacity at constant pressure,395 K,210.3 ± 1.7 J/K/mol
same,molar heat capacity at constant pressure,397.3 K,211.1 ± 1.7 J/K/mol
